These results are taken from ChEMBL document CHEMBL5050844 (2019).

By Kd is commonly meant the constant that tells how readily two partners part at equilibrium. A lower Kd goes with higher affinity. By IC50 is commonly meant the midpoint of a concentration-inhibition curve.

Test [1] has as its target T1, E3 ubiquitin-protein ligase CBL-B (Homo sapiens, UniProt Q13191). As to the kind of experiment: Binding affinity towards N-terminal biotinylated Avi-tagged human CBL-B (36 to 427 residues) measured by surface plasmon resonance assay. (In general: Surface plasmon resonance follows binding to a sensor surface in real time, without labels.)
Test [2] can be described thus: Induction of anti-CD3 antibodies-stimulated human T cell activation at 1 uM assessed fold increase in CD25 expression measured by ELISA assay. Note: reference of the scale not given here. The test is classed as functional, T cell line.
The nature of test [3]: Induction of anti-CD3/CD28 antibodies-stimulated human T cell activation at 1 uM assessed fold increase in CD25 expression measured by ELISA assay. It is filed as functional, T cell line. A general note: ELISA stands for enzyme-linked immunosorbent assay.
Test [4] can be described thus: Induction of anti-CD3 antibodies-stimulated human T cell activation at 8 uM assessed fold increase in CD25 expression measured by ELISA assay. Note: reference of the scale not given here. The test is classed as functional, T cell line.
Test [5] in a line: Induction of anti-CD3/CD28 antibodies-stimulated human T cell activation at 4 uM assessed fold increase in IL-2 secretion measured by ELISA assay. It is filed as functional, T cell line.
A short description of test [6]: Induction of anti-CD3/CD28 antibodies-stimulated human T cell activation at 0.3 uM assessed fold increase in CD25 expression measured by ELISA assay. It is filed as functional, T cell line.
For test [7], the target named is T1, E3 ubiquitin-protein ligase CBL-B. As to the kind of experiment: Inhibition of N-terminal Avi-tagged human CBL-B (36 to 427 residues) incubated with 60 nM Src kinase for 1.5 hrs followed by incubation with fluorescently labeled UbcH5B-Ub for 1 hr and measured by TR-FRET assay. The test is classed as single protein.
Test [8] in a line: Induction of anti-CD3/CD28 antibodies-stimulated human T cell activation at 0.3 uM assessed fold increase in IL-2 secretion measured by ELISA assay. The test is classed as functional, T cell line.
Test [9] can be described thus: Induction of anti-CD3/CD28 antibodies-stimulated human T cell activation at 1 uM assessed fold increase in IL-2 secretion measured by ELISA assay. The test is classed as functional, T cell line.
Test [10] is described as follows: Induction of anti-CD3 antibodies-stimulated human T cell activation at 8 uM assessed fold increase in IL-2 secretion measured by ELISA assay. Note: reference of the scale not given here. The test is classed as functional, T cell line.
The nature of test [11]: Induction of anti-CD3 antibodies-stimulated human T cell activation at 1 uM assessed fold increase in IL-2 secretion measured by ELISA assay. Note: reference of the scale not given here. It is filed as functional, T cell line.
Test [12] is described as follows: Induction of anti-CD3/CD28 antibodies-stimulated human T cell activation at 4 uM assessed fold increase in CD25 expression measured by ELISA assay. The test is classed as functional, T cell line.

SMILES strings stand for the structures. Where only a bound is given, the exact number is not on record here.

T1 sequence (Q13191 whole entry, the tested form may be a part): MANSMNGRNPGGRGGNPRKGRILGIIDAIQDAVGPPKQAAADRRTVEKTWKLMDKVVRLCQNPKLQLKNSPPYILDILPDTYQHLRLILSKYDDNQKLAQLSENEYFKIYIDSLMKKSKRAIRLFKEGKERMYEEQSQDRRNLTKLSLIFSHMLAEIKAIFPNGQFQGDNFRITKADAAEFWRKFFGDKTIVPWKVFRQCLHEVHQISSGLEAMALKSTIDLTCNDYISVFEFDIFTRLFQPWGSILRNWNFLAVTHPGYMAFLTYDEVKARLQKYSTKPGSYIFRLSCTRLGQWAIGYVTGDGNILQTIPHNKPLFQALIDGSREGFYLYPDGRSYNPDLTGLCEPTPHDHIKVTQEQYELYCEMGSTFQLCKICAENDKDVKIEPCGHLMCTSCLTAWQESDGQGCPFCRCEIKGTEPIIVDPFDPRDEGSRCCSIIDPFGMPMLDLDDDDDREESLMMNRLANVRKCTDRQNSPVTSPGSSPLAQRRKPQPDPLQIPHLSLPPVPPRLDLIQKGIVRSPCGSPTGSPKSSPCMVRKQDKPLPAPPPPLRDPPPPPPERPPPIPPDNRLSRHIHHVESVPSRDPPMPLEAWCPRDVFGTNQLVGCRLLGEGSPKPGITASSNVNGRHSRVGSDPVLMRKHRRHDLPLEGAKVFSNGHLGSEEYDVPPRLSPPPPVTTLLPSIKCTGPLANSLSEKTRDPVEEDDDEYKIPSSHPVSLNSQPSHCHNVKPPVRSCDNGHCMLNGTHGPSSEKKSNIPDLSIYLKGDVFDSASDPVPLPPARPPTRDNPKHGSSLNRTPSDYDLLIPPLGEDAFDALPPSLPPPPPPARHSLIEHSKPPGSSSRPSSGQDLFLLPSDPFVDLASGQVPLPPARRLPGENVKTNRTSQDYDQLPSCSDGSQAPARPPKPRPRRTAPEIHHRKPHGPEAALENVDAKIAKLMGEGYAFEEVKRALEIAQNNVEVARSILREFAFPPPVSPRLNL

The compound `Cn1cnnc1C(F)(F)[C@](C)(F)c1cccc(N2Cc3c(cc(CN4CC[C@H](S(C)(=O)=O)C4)cc3C(F)(F)F)C2=O)c1` displayed a Kd in test [1] of under 100 nM. For the same compound, the “fold change (FC)” value in test [2] was 0.801; in [3], 1.01; in test [4], “>=1.001”; in test [5] it was “>=7.5”; in test [6], 1.01; in test [8], 2.51. In addition, the “fold change (FC)” value was 2.51 in test [9], “>=0.201” in [10], 0.101 in test [11] and 1.01 in [12]. The IC50 in [7] is under 100 nM.

For the compound `CC1C=NN=C1C[C@@H](C)c1cccc(N2Cc3c(cc(C(=O)N4C[C@@H](O)C[C@H]4C)cc3C(F)(F)F)C2=O)c1` (stereo partly drawn), the Kd in test [1] was under 100 nM. The “fold change (FC)” value in test [2] was “>=1.001”; in [3], 1.01; in test [4], “>=1.001”; in test [5], “>=7.5”; in test [6], 1.01; in test [8] it was 1.01. For the same compound, the “fold change (FC)” value in test [9] is 2.51; in test [10] it was “>=0.201”; in test [11], 0.151; in test [12] it was 1.31. In test [7], the IC50 was under 100 nM.

As for `C[C@H](Cc1nncn1C)c1cccc(N2Cc3c(cc(CN4C[C@@H](O)[C@H](F)C4)cc3C(F)(F)F)C2=O)c1`, the Kd in [1] was under 100 nM. Besides, the “fold change (FC)” value in test [2] is “>=1.001”; in test [3] it was 1.31; in test [4], “>=1.001”; in test [5] it was “>=7.5”; in test [6] it was 1.01; in test [8], 2.51. The “fold change (FC)” value in [9] is recorded as “>=7.5”; in test [10], “>=0.201”; in test [11], “>=0.201”; in test [12], 1.31. Also, in test [7], the IC50 was under 100 nM.

In test [1], `C[C@H](Cc1nncn1C)c1cccc(N2Cc3c(cc(CN4CCC(F)(F)C4)cc3C(F)(F)F)C2=O)c1` showed a dissociation constant (Kd) of under 100 nM. Further, the “fold change (FC)” value is “>=1.001” in test [2]; 1.01 in [3]; “>=1.001” in test [4]; “>=7.5” in [5]; 1.01 in test [6]; 2.51 in test [8]. Moreover, the “fold change (FC)” value is 5 in [9], “>=0.201” in [10], 0.151 in test [11] and 1.31 in test [12]. For the same compound, the IC50 in test [7] was under 100 nM.

`Cc1n[nH]c(C)c1-c1cc2c(c(C(F)(F)F)c1)CN(c1cccc([C@H](C)Cc3nncn3C)c1)C2=O` registered a Kd in [1] of under 100 nM. The “fold change (FC)” value is given as “>=1.001” in test [2]; 1.51 in test [3]; “>=1.001” in test [4]; “>=7.5” in test [5]; 1.31 in [6]; 2.51 in test [8]. For the same compound, the “fold change (FC)” value is recorded as “>=7.5” in test [9], “>=0.201” in test [10], “>=0.201” in [11] and “>=1.76” in [12]. Further, in test [7], the IC50 was under 100 nM.

Take `C[C@H](Cc1nncn1C)c1cccc(NC(=O)c2cc(C(=O)N3CC(O)C(F)(F)C3)ccn2)c1` (stereo partly drawn): in test [1], the Kd was over 10000 nM. Besides, the “fold change (FC)” value in test [2] was 0.601; in test [3], “<=1”; in test [4] it was 0.801; in test [5], 2.51; in test [6], “<=1”; in [8], “<=1”. Moreover, the “fold change (FC)” value in [9] is “<=1”; in test [10], “>=0.201”; in test [11], “>=0.201”; in test [12] it was 1.31.

`CC(C)Nc1cc([C@H](C)Cc2nncn2C)cc(N2Cc3c(cccc3C(F)(F)F)C2=O)n1` returned a Kd in test [1] of under 100 nM. The “fold change (FC)” value is listed as 0.801 in test [2]; 1.01 in test [3]; “>=1.001” in [4]; “>=7.5” in test [5]; 1.01 in test [6]; 1.01 in [8]. The “fold change (FC)” value in [9] is reported as 2.51; in test [10] it was “>=0.201”; in [11] it was 0.101; in test [12], 1.31. This compound gave an IC50 in test [7] of under 100 nM.
